Measurements reported in PubChem BioAssay (NCI).
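Briefly, cells in 96-well plates were exposed to five compound concentrations for 48 h, and endpoints were estimated by linear interpolation. Definition used: TGI = concentration required for complete inhibition of growth.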

Tests used:
Test in all cases: NCI tumour cell line growth inhibition, 48 h
786-0 renal = tested on: 786-0 renal
A549 NSCLC = tested on: A549 NSCLC
ACHN renal = tested on: ACHN renal
BT-549 breast = tested on: BT-549 breast
CAKI-1 renal = tested on: CAKI-1 renal
COLO 205 colon = tested on: COLO 205 colon
DU-145 prostate = tested on: DU-145 prostate
EKVX NSCLC = tested on: EKVX NSCLC
HCT-116 colon = tested on: HCT-116 colon
HCT-15 colon = tested on: HCT-15 colon
HL-60(TB) leukemia = tested on: HL-60(TB) leukemia
HOP-62 NSCLC = tested on: HOP-62 NSCLC
HOP-92 NSCLC = tested on: HOP-92 NSCLC
HS 578T breast = tested on: HS 578T breast
HT29 colon = tested on: HT29 colon
IGROV1 ovarian = tested on: IGROV1 ovarian
K-562 leukemia = tested on: K-562 leukemia
KM12 colon = tested on: KM12 colon
LOX IMVI melanoma = tested on: LOX IMVI melanoma
M14 melanoma = tested on: M14 melanoma
MALME-3M melanoma = tested on: MALME-3M melanoma
MCF7 breast = tested on: MCF7 breast
MDA-MB-231 breast = tested on: MDA-MB-231 breast
MDA-MB-435 = tested on: MDA-MB-435
MOLT-4 leukemia = tested on: MOLT-4 leukemia
NCI-H23 lung = tested on: NCI-H23 lung
NCI-H460 lung = tested on: NCI-H460 lung
NCI-H522 lung = tested on: NCI-H522 lung
NCI/ADR-RES ovarian = tested on: NCI/ADR-RES ovarian
OVCAR-3 ovarian = tested on: OVCAR-3 ovarian
OVCAR-4 ovarian = tested on: OVCAR-4 ovarian
OVCAR-5 ovarian = tested on: OVCAR-5 ovarian
OVCAR-8 ovarian = tested on: OVCAR-8 ovarian
PC-3 prostate = tested on: PC-3 prostate
RXF 393 renal = tested on: RXF 393 renal
SF-268 CNS = tested on: SF-268 CNS
SF-295 CNS = tested on: SF-295 CNS
SF-539 CNS = tested on: SF-539 CNS
SK-MEL-2 melanoma = tested on: SK-MEL-2 melanoma
SK-MEL-28 melanoma = tested on: SK-MEL-28 melanoma
SK-MEL-5 melanoma = tested on: SK-MEL-5 melanoma
SK-OV-3 ovarian = tested on: SK-OV-3 ovarian
SN12C renal = tested on: SN12C renal
SNB-19 CNS = tested on: SNB-19 CNS
SNB-75 CNS = tested on: SNB-75 CNS
SR leukemia = tested on: SR leukemia
SW-620 colon = tested on: SW-620 colon
T-47D breast = tested on: T-47D breast
TK-10 renal = tested on: TK-10 renal
U251 CNS = tested on: U251 CNS
UACC-257 melanoma = tested on: UACC-257 melanoma
UACC-62 melanoma = tested on: UACC-62 melanoma
UO-31 renal = tested on: UO-31 renal

Measured: TGI

O=C(CSc1nccc(=O)[nH]1)c1ccccc1
> 100 µM: 786-0 renal | A549 NSCLC | ACHN renal | BT-549 breast | CAKI-1 renal | COLO 205 colon | DU-145 prostate | EKVX NSCLC | HCT-116 colon | HCT-15 colon | HL-60(TB) leukemia | HOP-62 NSCLC | HOP-92 NSCLC | HS 578T breast | HT29 colon | IGROV1 ovarian | K-562 leukemia | KM12 colon | LOX IMVI melanoma | M14 melanoma | MALME-3M melanoma | MCF7 breast | MDA-MB-231 breast | MDA-MB-435 | MOLT-4 leukemia | NCI-H23 lung | NCI-H460 lung | NCI-H522 lung | NCI/ADR-RES ovarian | OVCAR-3 ovarian | OVCAR-4 ovarian | OVCAR-5 ovarian | OVCAR-8 ovarian | PC-3 prostate | RXF 393 renal | SF-268 CNS | SF-295 CNS | SF-539 CNS | SK-MEL-2 melanoma | SK-MEL-28 melanoma | SK-MEL-5 melanoma | SK-OV-3 ovarian | SN12C renal | SNB-19 CNS | SNB-75 CNS | SR leukemia | SW-620 colon | T-47D breast | TK-10 renal | U251 CNS | UACC-257 melanoma | UACC-62 melanoma | UO-31 renal
